According to patent US9624549B2, “Stable gene targets in breast cancer and use thereof for optimizing therapy” (Cytognomix Inc., priority 2012, dated 2017):
“And” between values parts separate entries of the source, which are not always exact repeats. Identical values can stand only once. Like-named read-outs stand apart in the source and are kept apart here.

Experiments:
HS578T [1] = conditions: HS578T cell line; replicate assays; cited from earlier work
MDAMB231 = conditions: MDA231 (MDAMB231) cell line; replicate assays; cited from earlier work
T47D = T47D cell line; replicate assays; cited from earlier work
MCF7 = MCF7 cell line; replicate assays; cited from earlier work
HS578T [2] = assay: GI50 of breast cancer cell lines from NCI60 panel; assay type: cell-based; conditions: Homo sapiens, Hs-578T, mean of replicate GI50s, read-out: mean concentration (GI50) (converted)
Text: Certain anti-breast cancer therapies have been evaluated in the NCl-60 panel of cancer cell lines (Staunton J E, Slonim D K, Coller H A, Tamayo P, Angelo M J, Park J, Scherf U, Lee J K, Reinhold W O, Weinstein J N and others. 2001. Chemosensitivity prediction by transcriptional profiling. Proc Natl Acad Sci USA 98:10787-92.) including four cell lines we studied (MCF7, MDA-MB-231, HS578T, and T-47D). We have confirmed stable copy numbers for a representative group of target genomic intervals in 5 breast cancer lines (MCF7, MDAMB231, HS578T, T47D and SKBR-3). Despite the lack of stratification in pathology in the tumors studied, genomic architectures and functions were preserved in these regions. Paclitaxel and its derivatives, estrone, estradiol, and topotecan are common therapies that act on multiple products encoded by dually stable genes which may, in part, explain why they are effective for inhibiting growth of these cell lines and for treating breast cancer.

BT549 = BT549 cell line; replicate assays; cited from earlier work
[3] = tested on: triple-negative breast cancer cell lines; conditions: triple-negative breast cancer cell lines (Liu et al. 2009); cited from earlier work

Row | SMILES | GI50 (HS578T [1]) | GI50 (MDAMB231) | GI50 (T47D) | GI50 (MCF7) | GI50 (HS578T [2]) [µM] | GI50 (BT549) | anti-cancer activity [3]
1 | CC[C@@]1(O)C(=O)OCc2c1cc1n(c2=O)Cc2cc3c(CN(C)C)c(O)ccc3nc2-1 [To, topotecan] | 5.96 −log10M and 5.14 −log10M and 5.73 −log10M | 6.41 −log10M and 5.67 −log10M and 5.65 −log10M | 8.24 −log10M and 7.82 −log10M and 7.73 −log10M | 8.09 −log10M and 7.79 −log10M and 7.83 −log10M | 28.2 | 7.36 −log10M and 7.05 −log10M and 7.32 −log10M | –
2 | S=c1nc[nH]c2nc[nH]c12 [Me, mercaptopurine] | 4.85 −log10M and 4.84 −log10M | 4.61 −log10M and 5.14 −log10M | 5.45 −log10M and 5.62 −log10M | 5.78 −log10M and 5.74 −log10M and 5.82 −log10M | – | 4.52 −log10M and 3.74 −log10M and 4.00 −log10M | –
3 | Nc1ccn([C@@H]2O[C@H](CO)[C@@H](O)C2(F)F)c(=O)n1 [Gm, gemcitabane] | 5.65 −log10M and 4.00 −log10M | 5.86 −log10M and 6.28 −log10M and 6.03 −log10M | 6.26 −log10M and 8.00 −log10M and 5.86 −log10M | 7.99 −log10M and 8.00 −log10M | – | 7.80 −log10M and 8.00 −log10M | –
4 | CC(=O)O[C@H]1C(=O)[C@@]2(C)[C@H]([C@H](OC(=O)c3ccccc3)[C@]3(O)C[C@H](OC(=O)[C@H](O)[C@@H](NC(=O)c4ccccc4)c4ccccc4)C(C)=C1C3(C)C)[C@]1(OC(C)=O)CO[C@@H]1C[C@@H]2O [Pa, Paclitaxel] | 8.81 −log10M and 8.22 −log10M and 8.52 −log10M | 8.56 −log10M and 7.27 −log10M and 7.91 −log10M | 6.56 −log10M and 7.27 −log10M and 6.91 −log10M | 9.06 −log10M and 8.01 −log10M and 8.53 −log10M | 0.00316 | 9.30 −log10M and 7.60 −log10M and 8.45 −log10M | –
5 | CN(C)C(=N)N=C(N)N [Metformin] | – | – | – | – | – | – | has anti-cancer activity
